Like-named read-outs stand apart in the source and are kept apart here.
Tested on: H460 cells
Assay: Cell proliferation assay (resazurin, CellTiter-Blue), H460 cells
Type: cell-based
Settings: for GI50: Homo sapiens; for Effect of the C16 modification on potency (in words): comment on the data of Table 2 (H460 cells)
Method: Cell Culture: All cell-culture work was conducted in a class II biological safety cabinet. H460 cells (P2-P4, American Type Culture Collection) were maintained in RPMI-1640 medium supplemented with 10% fetal bovine serum (FBS). HL-60 cells (P2-P4, American Type Cuture Collection) were maintained in RPMI-1640 medium supplemented with 10% FBS. MES-SA/Dx-5 cells (P2-P4, European Collection of Authenticated Cell Cultures) were maintained in McCoy's 5A medium supplemented with 10% FBS.
Cell Proliferation Assay: H460 and MES-SA/Dx-5 cells were grown to approximately 80% confluence, and then were trpysinized, collected, and pelleted by centrifugation (10 min at 183 x g, 24° C.), and HL-60 cells were grown to confluence and directly pelleted by centrifugation (10 min at 183 × g, 24° C.). The supernatant was discarded and the cell pellet was resuspended in 10 mL of fresh medium. A sample was diluted 10-fold in fresh medium, and the concentration of cells was determined using a hemacytometer. The cell suspension was diluted to a concentration of 3000 cells/100 μL. The wells of a pre-sterilized 96-well plate were charged with 100 μL per well of the diluted cellular suspension. The plate was incubated for 24 h at 37° C. (5% CO2).
Stock solutions of each compound in DMSO were diluted with the appropriate media to 100 nM solutions (1% DMSO), which were then serially diluted with the appropriate media, and 100-uL aliquots of the resulting solutions were added to the wells containing adhered cells to achieve final concentrations of 0.39 nM to 50 nM. After incubating at 37° C. for 72 h (5% CO2), 20 μL of resazurin solution (Promega CellTiter-Blue® Cell Viability Assay) was added to each well. After incubating at 37° C. for 2.0 h (5% CO2), the fluorescence (544 nm excitation/590 nm emission) was recorded using a microplate reader (SpectraMax PLUS384) as a measure of viable cells.
Percent growth inhibition was calculated for each well, based upon the following formula: Percent growth inhibition=100×(S−B0)/(Bt−B0) where S is the sample fluorescence, Bt is the average fluorescence of an untreated population of cells at the completion of the assay, and B0 is the average fluorescence of an untreated population of cells at the beginning of the assay.
Each compound was assayed at eight separate concentrations per experiment. The percent inhibition at each concentration was plotted against log (concentration), and a curve fit was generated using the XLfit4 plugin (IDBS Software) running in Excel (Microsoft). GI50 values were computed to reflect the concentrations at which the resulting curves pass through 50% inhibition.

[1] = NCI-H460, H460 cells, 72 h incubation, read-out: GI50

Row | Compound | GI50 [1] | GI50 (NCI-H460, 72 h) | Effect of the C16 modification on potency (in words)
1 | COc1c2c(c(O)c3c4c(c(C)cc13)C1OC3(COCc5ccccc5)OC1[C@@](O)(O4)[C@@]31CO1)C(=O)CCC2 (stereo partly drawn) [compound 17, (2S,2′R,3a′R, 13a′R)-2′-((Benzyloxy)methyl)-12′, 13a′-dihydroxy-7′-methoxy-5′-methyl-3a′ 4′,8′,9′,10′,13a′-hexahydro-2′H,11′H-spiro [oxirane-2,1′-[2,4]epoxyfuro[3,2-b]naphtho[2,3-h]chromen]-11′-one] | > 100 nM | – | –
2 | COc1c2c(c(O)c3c4c(c(C)cc13)C1O[C@]3(COCc5ccccc5)O[C@H]1[C@@](OC)(O4)[C@@]31CO1)C(=O)CCC2 (stereo partly drawn) [compound 18, (2R,2′R,3a′R, 13a′R)-2′-((Benzyloxy)methyl)-12′-hydroxy-7′,13a′-dimethoxy-5′-methyl-3a′,4′,8′,9′,10′,13a′-hexahydro-2′H, 11′H-spiro [oxirane-2,1′-[2,4]epoxyfuro[3,2-b]naphtho[2,3-h]chromen]-11′-one] | > 100 nM | – | –
3 | COc1c2c(c(O)c3c4c(c(C)cc13)C1OC3(CO)OC1[C@@](OC)(O4)[C@@]31CO1)C(=O)CCC2 (some centres unmarked) [compound 19, (2R.2′R,3a′R, 13a′R)-12′-Hydroxy-2′-(hydroxymethyl)-7′,13a′-dimethoxy-5′-methyl-3a′, 4′,8′,9′,10′,13a′-hexahydro-2′H, 11′H-spiro [oxirane-2,1′-[2,4]epoxyfuro[3,2-b]naphtho[2,3-h]chromen]-11′-one] | – | 5.5 nM | –
4 | COc1c2c(c(O)c3c4c(c(C)cc13)C1OC3(CO)OC1[C@@](O)(O4)[C@@]31CO1)C(=O)CCC2 (stereo partly drawn) [compound 20, (25,2′R,3a′R, 13a′R)-12′, 13a′-dihydroxy-2′-(hydroxymethyl)-7′-methoxy-5′-methyl-3a′, 4′,8′,9′,10′,13a′-hexahydro-2′H,11′H-spiro[oxirane-2,1′-[2.4]epoxyfuro[3,2-b]naphtho[2,3-h]chromen]-11′-one] | 15 nM | – | –
5 | COc1c2c(c(O)c3c4c(c(C)cc13)C1O[C@]3(CO)O[C@H]1[C@@](OC)(O4)[C@@]3(O)CBr)C(=O)CCC2 (stereo partly drawn) [compound 21, (1R,2R,3aR,13aR)-1-(bromomethyl)-1,12-dihydroxy-2-(hydroxymethyl)-7,13a-dimethoxy-5-methyl-1,2,3a,4,8,9,10,13a-octahydro-11H-2,4-epoxyfuro[3,2-b]naphtho[2,3-h]chromen-11-one] | 8 nM | – | –
6 | CCCOCC12OC3c4c(C)cc5c(OC)c6c(c(O)c5c4O[C@](OC)(C3O1)[C@@]21CO1)C(=O)CCC6 (stereo partly drawn) [compound 22, (2R,2′R,3a′R,13a′R)-12′-Hydroxy-7′,13a′-dimethoxy-5′-methyl-2′-(propoxymethyl)-3a′, 4′,8′,9′,10′,13a′-hexahydro-2′H,11′H-spiro[oxirane-2,1′-[2.4]epoxyfuro[3,2-b]naphtho[2,3-h]chromen]-11′-one] | 22 nM | – | –
7 | C=CCOCC12OC3c4c(C)cc5c(OC)c6c(c(O)c5c4O[C@](OC)(C3O1)[C@@]21CO1)C(=O)CCC6 (stereo partly drawn) [compound 23, (2R,2′R,3a′R,13a′R)-2′-((Allyloxy)methyl)-12′-hydroxy-7′,13a′-dimethoxy-5′-methyl-3a′,4′,8′,9′,10′,13a′-hexahydro-2′H, 11′H-spiro[oxirane-2,1′-[2,4]epoxyfuro[3,2-b]naphtho[2.3-h]chromen]-11′-one] | 14 nM | – | –
8 | C#CCOCC12OC3c4c(C)cc5c(OC)c6c(c(O)c5c4O[C@](OC)(C3O1)[C@@]21CO1)C(=O)CCC6 (stereo partly drawn) [compound 24, (2R,2′R,3a′R,13a′R)-12′-Hydroxy-7′,13a′-dimethoxy-5′-methyl-2′-((prop-2-yn-1-yloxy)methyl)-3a′,4′,8′,9′,10′,13a′-hexahydro-2′H,11′H-spiro[oxirane-2,1′-[2,4]epoxyfuro[3,2-b]naphtho[2.3-h]chromen]-11′-one] | – | 14 nM | –
9 | COc1c2c(c(O)c3c4c(c(C)cc13)C1O[C@]3(CN=[N+]=[N-])O[C@H]1[C@@](OC)(O4)[C@@]31CO1)C(=O)CCC2 (stereo partly drawn) [compound 25, (2R,2′R,3a′R,13a′R)-2′-(Azidomethyl)-12′-hydroxy-7′,13a′-dimethoxy-5′-methyl-3a′, 4′,8′,9′,10′,13a′-hexahydro-2′H,11′H-spiro[oxirane-2,1′-[2,4]epoxyfuro[3,2-b]naphtho[2,3-h]chromen]-11′-one] | – | 33 nM | good tolerance
10 | COc1c2c(c(O)c3c4c(c(C)cc13)C1O[C@]3(CN)O[C@H]1[C@@](OC)(O4)[C@@]31CO1)C(=O)CCC2 (stereo partly drawn) [compound 26, (2R,2′R,3a′R,13a′R)-2′-(Aminomethyl)-12′-hydroxy-7′,13a′-dimethoxy-5′-methyl-3a′, 4′,8′,9′,10′, 13a′-hexahydro-2′H, 11′H-spiro[oxirane-2,1′-[2,4]epoxyfuro[3,2-b]naphtho[2,3-h]chromen]-11′-one] | 10 nM | – | good tolerance
11 | COc1c2c(c(O)c3c4c(c(C)cc13)C1OC3(COCc5cn(Cc6ccccc6)nn5)OC1[C@@](OC)(O4)[C@@]31CO1)C(=O)CCC2 (stereo partly drawn) [compound 27, (2R,2′R,3a′R,13a′R)-2′-(((1-Benzyl-1H-1,2,3-triazol-4-yl)methoxy)methyl)-12′-hydroxy-7′,13a′-dimethoxy-5′-methyl-3a′,4′,8′,9′, 10′, 13a′-hexahydro-2′H,11′H-spiro [oxirane-2, 1′-[2,4]epoxyfuro[3,2-b]naphtho[2.3-h]chromen]-11′-one] | – | > 100 nM | ablates potency
12 | COc1c2c(c(O)c3c4c(c(C)cc13)C1OC3(CO[C@@H]5O[C@H](COC(C)=O)[C@@H](OC(C)=O)[C@H](OC(C)=O)[C@H]5OC(C)=O)OC1[C@@](OC)(O4)[C@@]31CO1)C(=O)CCC2 (stereo partly drawn) [compound 28, (2R,3R,4S,5R,6R)-2-(Acetoxymethyl)-6-(((2R,13a′R)-12′-hydroxy-7′,13a′-dimethoxy-5′-methyl-11′-oxo-3a′,8′,9′,10′,11′,13a′-hexahydro-2′H,4′H-spiro [oxirane-2,1′-[2,4]epoxyfuro[3,2-b]naphtho[2,3-h]chromen]-2′-yl)methoxy) tetrahydro-2H-pyran-3,4,5-triyl triacetate] | – | > 100 nM | poorly tolerated
13 | COc1c2c(c(O)c3c4c(c(C)cc13)C1OC3(COCC5OC(CO)C(O)C(O)C5O)OC1[C@@](OC)(O4)[C@@]31CO1)C(=O)CCC2 (stereo partly drawn) [compound 29, (2R,13a′R)-12′-Hydroxy-7′,13a′-dimethoxy-5′-methyl-2′-((((2R,3R,4S,5S,6R)-3,4,5-trihydroxy-6-(hydroxymethyl)tetrahydro-2H-pyran-2-yl)oxy)methyl)-3a′ 4′,8′,9′, 10′,13a′-hexahydro-2′H. 11′H-spiro [oxirane-2,1′-[2,4]epoxyfuro[3,2-b]naphtho[2,3-h]chromen]-11′-one] | – | – | poorly tolerated
14 | COc1c2c(c(O)c3c4c(c(C)cc13)C1OC3(COC5CC(C)(O)C(OC(C)=O)C(C)O5)OC1[C@@](OC)(O4)[C@@]31CO1)C(=O)CCC2 (stereo partly drawn) [compound 30, (25,3S,4R,6S)-4-Hydroxy-6-(((2R,13a′R)-12′-hydroxy-7′,13a′-dimethoxy-5′-methyl-11′-oxo-3a′,8′,9′,10′,11′,13a′-hexahydro-2′H,4′H-spiro [oxirane-2,1′-[2,4]epoxyfuro[3,2-b]naphtho[2,3-h]chromen]-2′-yl)methoxy)-2,4-dimethyltetrahydro-2H-pyran-3-yl acetate] | – | 20 nM | well tolerated
15 | COc1c2c(c(O)c3c4c(c(C)cc13)C1OC3(CBr)OC1[C@@](OC)(O4)[C@@]31CO1)C(=O)CCC2 (stereo partly drawn) [compound 32, (2S,2′S,3a′R,13a′R)-2′-(Bromomethyl)-12′-hydroxy-7′,13a′-dimethoxy-5′-methyl-3a′,4′,8′9′,10′,13a′-hexahydro-2′H,11′H-spiro [oxirane-2,1′-[2,4]epoxyfuro[3,2-b]naphtho[2,3-h]chromen]-11′-one] | 20 nM | – | good tolerance
16 | COc1c2c(c(O)c3c4c(c(C)cc13)C1OC3(CSC(C)=O)OC1[C@@](OC)(O4)[C@@]31CO1)C(=O)CCC2 (stereo partly drawn) [compound 33, S-(((25,2'S,3a′R,13a′R)-12′-hydroxy-7′,13a′-dimethoxy-5′-methyl-11′-oxo-3a′,8′,9′,10′,11′,13a′-hexahydro-2′H,4′H-spiro [oxirane-2,1′-[2,4]epoxyfuro[3,2-b]naphtho[2,3-h]chromen]-2′-yl)methyl)ethanethioate] | – | 100 nM | lack of activity

— US20250144227A1, “C-16 MODIFIED TRIOXACARCINS, ANTIBODY DRUG CONJUGATES, AND USES THEREOF” (President and Fellows of Harvard College, priority 2021, published 2025)
